From patent publication US11786494B2, “Methods of modulation of branched chain acids and uses thereof” (Baylor College of Medicine, priority 2009, dated 2023) come the findings set out here.

For this test, the system named is plasma branched chain amino acids (BCAA) and branched chain ketoacids (BCKA). Nature of the test: Clinical protocol: plasma BCAA and BCKA before and after sodium phenylbutyrate. Type of test: in vivo, human. The note with it: day 3 vs baseline, listed as sodium phenylbutyrate. From the text:
FIG. 1 is a graph representing levels of branched chain amino acids (BCAAs) in control subjects (N=3) at baseline and then after treatment with sodium phenylbutyrate (PBA). Abbreviations: Ile=Isoleucine; Leu=Leucine; Val=Valine. *: p<0.05. Values are average of three time points after two days of treatment. Study subjects received PBA at the dose of 10 gram/m^2/day divided in four equal doses every six hours for three days. The subjects received a constant protein intake of 0.6 grams/kg/day as a combination of BCAA-free formula and whole protein. Measurements were performed on day three at three different time points separated by 30 minutes in the fed state. Note that y-axis represents concentrations comparing baseline to three days of treatment.
FIG. 2 is a graph representing levels of branched chain ketoacids (BCKAs) in control subjects (N=3) at baseline and then after treatment with sodium phenylbutyrate. Abbreviations: KMV=α-keto-β-methylvalerate; KIC=α-ketoisocaproate; KIV=α-ketoisovalerate. *: p<0.05. Values are average of three time points after two days of treatment. Subjects were all on the same steady state protein intake for three days at testing. Study subjects received PBA at the dose of 10 gram/m^2/day divided in four equal doses every six hours for three days. The subjects received a constant protein intake of 0.6 grams/kg/day as a combination of BCAA-free formula and whole protein. Measurements were performed on day three at three different time points separated by 30 minutes in the fed state. Note that y-axis represents concentrations comparing baseline to three days of treatment.
FIG. 3 is a graph representing levels of branched chain amino acids (BCAAs) in MSUD patients (N=5) at baseline and then after treatment with sodium phenylbutyrate. Values are average of three time points after two days of treatment. Patients were all on steady state protein intake for three days at testing. Study subjects received PBA at the dose of 10 gram/m^2/day divided in four equal doses every six hours for three days. The subjects received a constant protein intake of 0.6 grams/kg/day as a combination of BCAA-free formula and whole protein. Measurements were performed on day three at three different time points separated by 30 minutes in the fed state. Abbreviations: Ile=Isoleucine; Leu=Leucine; Val=Valine. *: p<0.05. Note that y-axis represents concentrations comparing baseline to three days of treatment.
FIG. 4 is a graph representing levels of branched chain ketoacids (BCKAs) in MSUD patients (N=5) at baseline and then after treatment with sodium phenylbutyrate. Values are average of three time points after two days of treatment. Patients were all on steady state protein intake for three days at testing. […]

[1] abbreviates: MSUD patients (N=5), three of five responders, 10 gram/m^2/day.
The mark [2] stands for this setting: healthy control subjects (N=3), 10 gram/m^2/day in four doses.

“Also recorded” adds a separate entry of the source.

For `O=C([O-])CCCc1ccccc1.[Na+]` [phenylbutyrate, sodium 4-phenylbutyrate], under setting [1], the “plasma BCAA levels” value is “reduced; also recorded: decreased their BCAAs” and the “plasma BCKA levels” value is “significantly decreased; also recorded: decreased their BCKAs”. In addition, under setting [2], the “plasma BCAA levels (isoleucine, leucine, valine)” value was “reduced; also recorded: significantly decreased levels” and the “plasma BCKA levels (KMV, KIC, KIV)” value is “reduced; also recorded: decreased their BCKAs”.
